ChEMBL document CHEMBL1201862, “PubChem BioAssay data set” (2004)
The source made the active and inactive calls.

Tests used:
[1] = decrease of insulin promoter-GFP reporter – imaging, high-content screening, mouse beta cells (AID 1628); assay type: functional; conditions: MIN6
[2] = MIN6 cell viability loss – mouse insulinoma, cytotoxicity control, dose response (AID 2122); assay type: functional;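 also: confirmatory high-throughput counterscreen run to flag cytotoxic compounds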
A-375 = assay: MITF: Counter assay: A375 proliferation Measured in Cell-Based System Using Plate Reader - 2084-03_Inhibitor_Dose_DryPowder_Activity. [Related pubchem assays (depositor defined):AID488944]; assay type: functional; conditions: Homo sapiens
BJ [3] = assay: BJ-TERT fibroblast viability loss – cell-based, RAS-independent, luminescence, dose response (AID 1933); assay type: functional; conditions: Homo sapiens
Protein RecA = target: T1, Protein RecA (Mycobacterium tuberculosis, UniProt P9WHJ3); assay: Fluorescence Cell-Free Homogeneous Dose Retest to Identify Inhibitors of RecA-Intein Splicing Activity. [Related pubchem assays (depositor defined):AID2097, AID2223, AID489010, AID492950]; assay type: functional
T1 sequence (P9WHJ3 whole entry): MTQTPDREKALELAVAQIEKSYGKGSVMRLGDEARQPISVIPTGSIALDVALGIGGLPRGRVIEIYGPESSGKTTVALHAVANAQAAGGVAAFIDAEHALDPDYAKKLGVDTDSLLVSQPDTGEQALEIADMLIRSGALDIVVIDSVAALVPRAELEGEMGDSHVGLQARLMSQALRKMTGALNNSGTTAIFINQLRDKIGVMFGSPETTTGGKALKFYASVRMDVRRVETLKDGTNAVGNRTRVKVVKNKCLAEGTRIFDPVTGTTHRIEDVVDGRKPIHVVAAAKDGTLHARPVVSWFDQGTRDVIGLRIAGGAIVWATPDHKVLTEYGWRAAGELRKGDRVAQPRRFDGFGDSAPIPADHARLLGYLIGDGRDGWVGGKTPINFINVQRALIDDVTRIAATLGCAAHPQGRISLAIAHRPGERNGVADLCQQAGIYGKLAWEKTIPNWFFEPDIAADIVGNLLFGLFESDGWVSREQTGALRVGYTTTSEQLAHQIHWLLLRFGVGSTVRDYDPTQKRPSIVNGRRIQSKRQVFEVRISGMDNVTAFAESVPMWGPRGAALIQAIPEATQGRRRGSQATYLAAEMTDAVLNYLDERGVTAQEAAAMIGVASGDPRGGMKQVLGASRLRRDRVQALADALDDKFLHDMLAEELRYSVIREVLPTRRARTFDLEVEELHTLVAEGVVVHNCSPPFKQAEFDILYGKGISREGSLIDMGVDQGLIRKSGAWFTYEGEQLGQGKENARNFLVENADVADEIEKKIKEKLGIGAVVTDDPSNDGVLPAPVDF

[4] = DRD fibroblast viability loss – cell-based, non-viral oncogenic, luminescence, dose response (AID 1934); assay type: functional; conditions: Homo sapiens
BJ [5] = assay: cells; assay type: functional, cell-based; conditions: Homo sapiens
[6] = target: T2, Replicative DNA helicase DnaB (Mycobacterium tuberculosis, UniProt P9WMR3); assay: DnaB intein splicing inhibitors, dose response, biochemical, cell-free fluorescence (AID 449749); assay type: functional
T2 sequence (P9WMR3 whole entry): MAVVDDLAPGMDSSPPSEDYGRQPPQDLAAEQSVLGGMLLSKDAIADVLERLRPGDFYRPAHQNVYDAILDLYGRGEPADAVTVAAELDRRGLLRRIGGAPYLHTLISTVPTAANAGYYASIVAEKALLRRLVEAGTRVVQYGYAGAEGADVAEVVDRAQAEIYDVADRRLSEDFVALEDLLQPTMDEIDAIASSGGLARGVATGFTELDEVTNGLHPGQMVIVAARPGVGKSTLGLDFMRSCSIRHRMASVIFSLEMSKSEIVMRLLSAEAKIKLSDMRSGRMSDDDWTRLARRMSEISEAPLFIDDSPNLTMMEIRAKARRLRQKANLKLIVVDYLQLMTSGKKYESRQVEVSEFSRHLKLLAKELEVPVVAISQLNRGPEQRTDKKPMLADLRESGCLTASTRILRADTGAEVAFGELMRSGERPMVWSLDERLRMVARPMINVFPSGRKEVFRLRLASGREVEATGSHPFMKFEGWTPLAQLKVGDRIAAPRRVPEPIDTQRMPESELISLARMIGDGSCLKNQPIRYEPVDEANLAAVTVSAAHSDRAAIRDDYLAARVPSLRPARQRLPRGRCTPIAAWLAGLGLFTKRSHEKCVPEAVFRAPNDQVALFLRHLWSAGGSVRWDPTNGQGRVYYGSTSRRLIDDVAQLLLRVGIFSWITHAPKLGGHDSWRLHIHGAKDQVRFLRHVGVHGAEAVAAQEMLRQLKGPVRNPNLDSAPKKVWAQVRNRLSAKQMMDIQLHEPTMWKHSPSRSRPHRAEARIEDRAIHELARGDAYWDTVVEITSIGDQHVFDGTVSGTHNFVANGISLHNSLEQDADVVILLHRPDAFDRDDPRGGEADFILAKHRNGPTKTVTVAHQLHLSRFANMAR

[7] = target: T3, Microphthalmia-associated transcription factor (Homo sapiens, UniProt O75030); assay: reducers of TRPM1 reporter luminescence, concentration series – cell-based, SK-MEL-5, cherry-picked, set 3, MITF inhibitor project, dose response (AID 493073); assay type: functional;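 also: SK-MEL-5 melanoma cells with luciferase driven by the MITF target TRPM1 promoter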
T3 sequence (O75030 whole entry): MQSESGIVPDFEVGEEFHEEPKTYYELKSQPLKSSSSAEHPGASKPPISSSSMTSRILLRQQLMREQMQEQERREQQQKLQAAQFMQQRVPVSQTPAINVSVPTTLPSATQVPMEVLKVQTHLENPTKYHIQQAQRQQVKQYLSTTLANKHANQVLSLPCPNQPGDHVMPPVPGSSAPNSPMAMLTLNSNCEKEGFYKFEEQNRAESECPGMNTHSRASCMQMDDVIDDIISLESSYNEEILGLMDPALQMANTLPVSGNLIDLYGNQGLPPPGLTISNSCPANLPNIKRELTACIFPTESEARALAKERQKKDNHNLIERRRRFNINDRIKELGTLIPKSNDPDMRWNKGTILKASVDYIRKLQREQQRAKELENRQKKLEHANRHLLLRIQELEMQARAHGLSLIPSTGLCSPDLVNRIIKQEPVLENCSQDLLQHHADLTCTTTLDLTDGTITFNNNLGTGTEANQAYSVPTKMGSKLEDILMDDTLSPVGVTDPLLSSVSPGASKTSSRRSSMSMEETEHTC

BJ [8] = assay: BJ-TERT-LT-ST fibroblast viability loss – cell-based, RAS-independent, luminescence, dose response (AID 1935); assay type: functional; conditions: Homo sapiens;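 also: BJ fibroblasts immortalized with TERT plus LT and ST oncogenes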
[9] = Trypanosoma cruzi growth suppression in host cells – NIH3T3 host cells, beta-gal luminescence, confirmation (AID 2044); assay type: functional, cell-based;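 also: intracellular parasites grown in NIH/3T3 mouse fibroblasts as host cells; luminescent beta-galactosidase reporter signal from transgenic T. cruzi replicating inside host cells; inhibitors lower the luminescence signal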
[10] = viability of uninfected HEp-2 cells – cell-based, HTS, cytotoxicity control for RSV inhibitor project, dose response (AID 2410); assay type: functional; conditions: human respiratory syncytial virus
[11] = NIH3T3 cell viability loss – ATP luminescence, mouse fibroblasts, counter-screen, dose response (AID 2010); assay type: functional, cell-based;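 also: cells exposed to compound for about 90 hours before reading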

Question: For `COc1cc(-c2nn3c(-c4ccccc4)nnc3s2)cc(OC)c1OC`, which IC50 [1] is on record?
Answer: Its IC50 is 3.22 µM (active).

Question: And the IC50 [2]?
Answer: Its IC50 is > 16 µM (inactive).

Question: What does the source list for `COc1ccc(N(Cc2cc(O)nc3ccccc23)C(=O)CCl)cc1`?
Answer: AC50 (A-375): 27.1 µM (active); EC50 (BJ [3]): 1.95 µM (active); EC50 (Protein RecA): 1.59 µM (active); EC50 [4]: 4.96 µM (inconclusive); EC50 (BJ [5]): 5.45 µM (inconclusive); AC50 [6]: 10.3 µM (active); AC50 [7]: 10.9 µM (active); EC50 (BJ [8]): 4.68 µM (active)

Question: Which IC50 [1] does the source give for `N=c1ccn(Cc2cccc(Cl)c2)cc1` here?
Answer: The IC50 was 3.15 µM (active).

Question: What about the IC50 [2] of the same compound?
Answer: Its IC50 is 3.41 µM (active).

Question: Which EC50 [9] does the source give for `O=C(NCc1cn(-c2ccccc2)nc1-c1ccc(F)cc1)c1cccc([N+](=O)[O-])c1` here?
Answer: Its EC50 is 0.805 µM (active).

Question: And the CC50 [10]?
Answer: The CC50 was 28.1 µM (active).

Question: What about the EC50 [11] of the same compound?
Answer: Its EC50 is > 60 µM (not active).

Question: And the IC50 [1]?
Answer: Its IC50 is 2.91 µM (active).

Question: And the IC50 [2]?
Answer: The IC50 was 4.31 µM (active).
